Results: US20110015226A1, “Treatment of Energy Utilization Disease” (SUMMIT CORPORATION PLC, priority 2008, published 2011)
“And” between values parts separate entries of the source, which are not always exact repeats. Equal values may be shown once. Read-outs that look alike come from different tables or passages of the source.

Tests used:
[1] = molecular target: T1, N-acetyl-β-D-glucosaminidase (A. oryzae) (Aspergillus oryzae, UniProt Q8J2T0); assay: Glycosidase inhibition: N-acetyl-β-D-glucosaminidase (A. oryzae); type: biochemical; conditions: compounds tested at 0.8 mM
T1 construct: purchased Sigma
T1 sequence (Q8J2T0 97-600): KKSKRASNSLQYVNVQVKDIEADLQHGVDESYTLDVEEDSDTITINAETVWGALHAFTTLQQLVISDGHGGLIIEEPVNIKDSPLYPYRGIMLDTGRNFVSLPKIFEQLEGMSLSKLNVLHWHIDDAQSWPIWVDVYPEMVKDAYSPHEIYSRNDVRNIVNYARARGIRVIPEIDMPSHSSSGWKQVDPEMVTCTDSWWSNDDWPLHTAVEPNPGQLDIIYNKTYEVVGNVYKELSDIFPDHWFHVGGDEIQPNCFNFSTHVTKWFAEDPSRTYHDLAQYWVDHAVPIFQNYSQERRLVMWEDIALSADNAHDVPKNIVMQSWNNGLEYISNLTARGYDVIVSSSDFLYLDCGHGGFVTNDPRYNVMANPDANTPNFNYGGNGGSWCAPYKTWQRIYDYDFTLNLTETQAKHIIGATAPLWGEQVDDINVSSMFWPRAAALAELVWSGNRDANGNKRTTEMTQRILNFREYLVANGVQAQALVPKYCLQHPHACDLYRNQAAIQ
Text: (§1) The results tabulated below were obtained using commercially available glycosidases and p-nitrophenyl-substrates using standard methods described for example by Watson et al (1997) Phytochemistry 46 255-259. All enzymes and substrates were bought from Sigma. Enzyme and substrate solutions were made using sodium phosphate buffers at the pH optima values. The enzymes used were α-D-glucosidase Saccharomyces cerevisiae, Bacillus stearothermophilus, Oryzae sativa), β-D-glucosidase (Almond), α-D-mannosidase (Jack bean), α-D-galactosidase (Green coffee beans), β-D-galactosidase (Bovine liver), α-L-fucosidase (Bovine kidney), N-acetyl-β-D-glucosaminidase (Bovine kidney, Jack bean, Aspergillus oryzae), Naringinase (Penicillium decumbens) and amyloglucosidase (Aspergillus niger). All enzymes were used with the appropriate p-nitrophenyl substrates (5 mM). Amyloglucosidase activity was measured using amylopectin (0.1%) (Merck) mixed with sodium phosphate buffer, pH 4.5 in a glass bottle, and healed in a boiling water bath for 20 minutes to dissolve with released glucose measured using ‘Trinder’ glucose detection solution (Sigma).
(§2) All enzymes and para-nitrophenyl substrates were purchased from Sigma, with the exception of beta-mannosidase which came from Megazyme. Enzymes were assayed at 27° C. in 0.1M citric acid/0.2M disodium hydrogen phosphate buffers at the optimum pH for the enzyme. The incubation mixture consisted of 10 μl enzyme solution, 10 μl of 1 mg/ml aqueous solution of extract and 50 μl of the appropriate 5 mM para-nitrophenyl substrate made up in buffer at the optimum pH for the enzyme. The reactions were stopped by addition of 70 μl 0.4M glycine (pH 10.4) during the exponential phase of the reaction, which had been determined at the beginning using uninhibited assays in which water replaced inhibitor. Final absorbances were read at 405 nm using a Versamax microplate reader (Molecular Devices). Assays were carried out in triplicate, and the values given are means of the three replicates per assay. (See Watson, A. A., Nash, R. J., Wormald, M. R., Harvey, D. J., Dealler, S., Lees, E., Asano, N., Kizu, H., Kato, A., Griffiths, R. C., Cairns, A. J. and Fleet, G. W. J. (1997). Glycosidase-inhibiting pyrrolidine alkaloids from Hyacinthoides non-scripta. Phytochemistry 46 (2): 255-259.)

[2] = molecular target: T2, β-Glucuronidase Bovine liver (Bos taurus, UniProt A3KMY8); assay: Glycosidase inhibition: β-Glucuronidase Bovine liver; type: biochemical; conditions: for inhibition at 800 µM: compounds tested at 0.8 mM;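 for all read-outs here: bovine liver β-glucuronidase acting on p-nitrophenyl β-D-glucuronide substrate in citric acid/disodium hydrogen phosphate buffer, pH 5.0, 27 °C, mean of triplicate runs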
T2 construct: The assay involved the use of Bovine liver β-glucuronidase; purchased Sigma; host or cells: bovine liver
T2 sequence (A3KMY8 1-652): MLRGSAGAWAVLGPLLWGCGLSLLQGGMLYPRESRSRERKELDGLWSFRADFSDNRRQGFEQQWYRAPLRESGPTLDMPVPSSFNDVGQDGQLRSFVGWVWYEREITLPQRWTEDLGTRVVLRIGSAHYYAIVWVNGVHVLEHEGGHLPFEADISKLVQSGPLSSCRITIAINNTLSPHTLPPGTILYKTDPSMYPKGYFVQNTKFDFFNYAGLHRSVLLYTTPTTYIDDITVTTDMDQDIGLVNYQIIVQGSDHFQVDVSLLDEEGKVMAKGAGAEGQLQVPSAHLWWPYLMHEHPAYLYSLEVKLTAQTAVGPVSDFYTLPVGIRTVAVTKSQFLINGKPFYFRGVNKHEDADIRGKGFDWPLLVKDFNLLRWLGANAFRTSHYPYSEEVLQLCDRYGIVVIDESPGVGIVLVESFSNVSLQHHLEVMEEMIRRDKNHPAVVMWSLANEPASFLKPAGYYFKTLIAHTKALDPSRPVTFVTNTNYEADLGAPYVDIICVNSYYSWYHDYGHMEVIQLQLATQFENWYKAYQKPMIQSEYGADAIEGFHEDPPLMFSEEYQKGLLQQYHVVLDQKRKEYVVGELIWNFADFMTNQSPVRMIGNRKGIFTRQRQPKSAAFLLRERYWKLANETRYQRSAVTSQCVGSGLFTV

[3] = test system: N-acetyl-β-D-glucosaminidase (Bovine kidney); assay: Glycosidase inhibition: N-acetyl-β-D-glucosaminidase (Bovine kidney); type: biochemical; conditions: for % inhibition, N-acetyl-β-D-glucosaminidase (Bovine kidney): compounds tested at 0.8 mM;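 for all read-outs here: enzyme activity followed by cleavage of the matching p-nitrophenyl glycoside (5 mM) in phosphate buffer set to the enzyme's optimal pH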
β-D-glucosidase (Almond) = assay: Glycosidase inhibition: β-D-glucosidase (Almond); type: biochemical; conditions: compounds tested at 0.8 mM
Text: as §1
as §2, with “(See Watson, A. A., Nash, R. J., Wormald, M. R., Harvey, D. J., Dealler, S., Lees, E., Asano, N., Kizu, H., Kato, A., Griffiths, R. C., Cairns, A. J. and Fleet, G. W. J. (1997). Glycosidase-inhibiting pyrrolidine alkaloids from Hyacinthoides non-scripta. Phytochemistry 46 (2): 255-259.)” left out

[4] = test system: β-D-galactosidase Bovine liver; assay: Glycosidase inhibition: β-D-galactosidase Bovine liver; type: biochemical; conditions: compounds tested at 0.8 mM
Text: as §1, §2

[5] = test system: Naringinase Penicillium decumbens; assay: Glycosidase inhibition: Naringinase Penicillium decumbens; type: biochemical; conditions: compounds tested at 0.8 mM
Text: as §1
as §2, with “(See Watson, A. A., Nash, R. J., Wormald, M. R., Harvey, D. J., Dealler, S., Lees, E., Asano, N., Kizu, H., Kato, A., Griffiths, R. C., Cairns, A. J. and Fleet, G. W. J. (1997). Glycosidase-inhibiting pyrrolidine alkaloids from Hyacinthoides non-scripta. Phytochemistry 46 (2): 255-259.)” left out

[6] = test system: N-acetyl-β-D-glucosaminidase (Jack bean); assay: Glycosidase inhibition: N-acetyl-β-D-glucosaminidase (Jack bean); type: biochemical; conditions: compounds tested at 0.8 mM
Text: as §1
as §2, with “(See Watson, A. A., Nash, R. J., Wormald, M. R., Harvey, D. J., Dealler, S., Lees, E., Asano, N., Kizu, H., Kato, A., Griffiths, R. C., Cairns, A. J. and Fleet, G. W. J. (1997). Glycosidase-inhibiting pyrrolidine alkaloids from Hyacinthoides non-scripta. Phytochemistry 46 (2): 255-259.)” left out

rat intestinal maltase = assay: Rat intestinal glycosidases: maltase; type: biochemical; conditions: rat intestinal brush border membranes
Procedure: Enzyme activities were prepared from brush border membranes of rat small intestine using disaccharides as substrates as described by Yasuda et al., 2002.

zebrafish larvae = assay: Acute Toxicity assay in zebrafish larvae; type: in vivo; conditions: 1 mM, 5 mM, 25 mM, 50 mM, 100 mM, 200 mM, 500 mM aqueous dose, 72-96 hpf
Procedure: The compound of formula (G2) was screened for toxicity liabilities using a validated Acute Toxicity assay. Fertilized eggs were obtained from breeding pairs of adult Tuebingen (Tu) zebrafish and arrayed at the 2-4 cell stage of development into 24-well culture plates containing fresh 0.3× Danieau's solution. Plates were incubated at 28.5° C. in a humidity controlled environment prior to assessment. Stock concentrations of Compound were produced by serial dilution in 100% DMSO (final concentration exposed to larvae, 0.5%). Screening was performed at seven doses (1, 5, 25, 50, 100, 200 and 500 mM) alongside VASTox internal controls and vehicle. Dosing of Compound took place at 72 h post fertilisation (hpf; at which point embryogenesis is complete) with visual assessment of lethality and gross morphology at 96 hpf (24 h incubation). […] were exposed to each dose of Compound giving a total of […] assessed (excluding controls). At 96 hpf, larvae were observed and screened using a dissecting stereomicroscope for the presence or absence of: (1) heartbeat (2) circulation; (3) necrosis; and (4) motility (touch response). If all four criteria were satisfied, a larva would be classified as dead. The compound was screened blind.

digestive glucosidases = conditions: Watson et al., 2001; cited from earlier work
[7] = pH 5.0, 27° C., p-nitrophenyl β-D-glucuronide, read-out: IC50, β-Glucuronidase Bovine liver
[8] = read-out: IC50 against mammalian glucuronidase

| SMILES | inhibition at 800 µM [1] [%] | IC50 [2, 7] [µM] | % inhibition, N-acetyl-β-D-glucosaminidase (Bovine kidney) [3] | IC50 ([3]; read-out: IC50, N-acetyl-β-D-glucosaminidase (Bovine kidney)) [µM] | IC50 ([3]; read-out: IC50 against mammalian 6-N-acetylglucosaminidase (hexosaminidase)) [µM] | IC50 [2, 8] [µM] | % inhibition, β-D-glucosidase (Almond) (β-D-glucosidase (Almond)) | % inhibition, β-D-galactosidase Bovine liver [4] | % inhibition, Naringinase Penicillium decumbens [5] | % inhibition, N-acetyl-β-D-glucosaminidase (Jack bean) [6] | inhibition at 800 µM [2] [%] | IC50 (rat intestinal maltase) [µM] | acute toxicity to zebrafish larvae (zebrafish larvae) | Ki values, digestive glucosidases (digestive glucosidases) |
| --- | --- | --- | --- | --- | --- | --- | --- | --- | --- | --- | --- | --- | --- | --- |
| CCCCOC(=O)[C@@H]1[C@@H](O)[C@H](O)[C@@H](O)CN1CCCC [Compound T2, (2S,3R,4R,5S)-Butyl 1-butyl-3,4,5-trihydroxypiperidine-2-carboxylate] | < 50 | 280 |  |  |  |  |  |  |  |  |  |  |  |  |
| O=C(O)CCN1C[C@H](O)[C@@H](O)[C@H](O)[C@H]1CO [Compound T1] | < 50 |  | 86.1% | 32.2 | 32 | 50 |  |  |  |  |  |  |  |  |
| O=C(O)CN1[C@H](CO)[C@@H](O)[C@H](O)[C@H]1CO [Compound S2, 2-((2R,3R,4R,5R)-3,4-Dihydroxy-2,5-bis(hydroxymethyl)pyrrolidin-1-yl)acetic acid] | < 50 | 507 |  |  |  |  | 55% | 60% |  |  |  |  |  |  |
| O=C(O)[C@H]1NC[C@H](O)[C@@H](O)[C@@H]1O [Compound G2, 2S,3R,4R,5S-trihydroxypiperidine-2-carboxylic acid] | < 10 |  | NI (NI = no inhibition) |  |  | 107 | NI (NI = no inhibition) | NI (NI = no inhibition) | NI (NI = no inhibition) | 10% | 90 | > 1000 | did not cause acute toxicity |  |
| OC[C@H]1NC[C@H](O)[C@@H](O)[C@@H]1O [DNJ, 1-deoxynojirimycin, reference compound] | < 10 |  |  |  |  |  |  | NI (NI = no inhibition) | 20% and 21% | NI (NI = no inhibition) | < 10 |  |  | low or sub-μM range |
